HELM strings list units from the 5' end as sugar, base in round brackets, then linkage (d deoxyribose, r ribose, m 2'-O-methyl, p phosphodiester). Strings are as the collection lists them; they lack the last nucleoside at the 3' end of the tested compound. [moe] = 2'-O-(2-methoxyethyl) (MOE); [sp] = phosphorothioate linkage; [m5C] = 5-methylcytosine
Target: GFAP
Test: mouse, dose not given
Conditions: ASO

Substance: RNA1{[moe](T)[sp].[moe]([m5C])p.[moe](T)p.[moe]([m5C])p.[moe](A)[sp].d(G)[sp].d(T)[sp].d(T)[sp].d(T)[sp].d(T)[sp].d([m5C])[sp].d([m5C])[sp].d(T)[sp].d([m5C])[sp].d([m5C])[sp].[moe](A)p.[moe](G)p.[moe]([m5C])[sp].[moe](A)}$$$$ (last 3' nucleoside missing)
- 3 h FOB score: 4 score 0-7

Substance: RNA1{[moe](T)[sp].[moe]([m5C])p.[moe](T)p.[moe]([m5C])p.[moe](T)[sp].d([m5C])[sp].d([m5C])[sp].d(T)[sp].d(G)[sp].d(T)[sp].d(T)[sp].d(T)[sp].d([m5C])[sp].d(A)[sp].d(G)[sp].[moe]([m5C])p.[moe](A)p.[moe](T)[sp].[moe]([m5C])}$$$$ (last 3' nucleoside missing)
- 3 h FOB score: 3 score 0-7

Substance: RNA1{[moe](T)[sp].[moe]([m5C])p.[moe]([m5C])p.[moe](T)p.[moe](G)[sp].d([m5C])[sp].d([m5C])[sp].d(T)[sp].d([m5C])[sp].d(A)[sp].d([m5C])[sp].d(A)[sp].d(T)[sp].d([m5C])[sp].d(A)[sp].[moe]([m5C])p.[moe](A)p.[moe](T)[sp].[moe]([m5C])}$$$$ (last 3' nucleoside missing)
- 3 h FOB score: 0 score 0-7

Substance: RNA1{[moe](T)[sp].[moe]([m5C])p.[moe]([m5C])p.[moe](T)p.[moe]([m5C])[sp].d(A)[sp].d(A)[sp].d(G)[sp].d(A)[sp].d(A)[sp].d([m5C])[sp].d([m5C])[sp].d(G)[sp].d(G)[sp].d(A)[sp].[moe](T)p.[moe]([m5C])p.[moe](T)[sp].[moe]([m5C])}$$$$ (last 3' nucleoside missing)
- 3 h FOB score: 1 score 0-7

Substance: RNA1{[moe]([m5C])[sp].[moe](A)p.[moe](A)p.[moe](G)p.[moe]([m5C])[sp].d(T)[sp].d([m5C])[sp].d(T)[sp].d(G)[sp].d([m5C])[sp].d([m5C])[sp].d(A)[sp].d(G)[sp].d(T)[sp].d(T)[sp].[moe](T)p.[moe](A)p.[moe](A)[sp].[moe](T)}$$$$ (last 3' nucleoside missing)
- 3 h FOB score: 5 score 0-7

Substance: RNA1{[moe]([m5C])[sp].[moe](A)p.[moe](G)p.[moe](G)p.[moe](G)[sp].d([m5C])[sp].d(T)[sp].d(A)[sp].d([m5C])[sp].d([m5C])[sp].d(T)[sp].d(T)[sp].d(G)[sp].d(T)[sp].d([m5C])[sp].[moe](T)p.[moe](G)p.[moe](T)[sp].[moe](G)}$$$$ (last 3' nucleoside missing)
- 3 h FOB score: 6 score 0-7

Substance: RNA1{[moe]([m5C])[sp].[moe](A)p.[moe](G)p.[moe](T)p.[moe](A)p.[moe](T)p.d(T)[sp].d(A)[sp].d([m5C])[sp].d([m5C])[sp].d(T)[sp].d([m5C])[sp].d(T)[sp].d(A)[sp].d([m5C])[sp].d(T)[sp].[moe](A)p.[moe](G)[sp].[moe](T)}$$$$ (last 3' nucleoside missing)
- 3 h FOB score: 0 score 0-7

Substance: RNA1{[moe]([m5C])[sp].[moe](A)p.[moe](G)p.[moe](T)p.[moe](A)p.d(T)[sp].d(T)[sp].d(A)[sp].d([m5C])[sp].d([m5C])[sp].d(T)[sp].d([m5C])[sp].d(T)[sp].d(A)[sp].d([m5C])[sp].[moe](T)p.[moe](A)p.[moe](G)[sp].[moe](T)}$$$$ (last 3' nucleoside missing)
- 3 h FOB score: 0 score 0-7

Substance: RNA1{[moe]([m5C])[sp].[moe](A)p.[moe](G)p.[moe](T)p.d(A)[sp].d(T)[sp].d(T)[sp].d(A)[sp].d([m5C])[sp].d([m5C])[sp].d(T)[sp].d([m5C])[sp].d(T)[sp].d(A)[sp].[moe]([m5C])p.[moe](T)p.[moe](A)p.[moe](G)[sp].[moe](T)}$$$$ (last 3' nucleoside missing)
- 3 h FOB score: 1 score 0-7

Substance: RNA1{[moe]([m5C])[sp].[moe](A)p.[moe](G)p.[moe]([m5C])p.[moe](A)[sp].d(G)[sp].d(T)[sp].d(G)[sp].d([m5C])[sp].d([m5C])[sp].d([m5C])[sp].d(T)[sp].d(G)[sp].d(A)[sp].d(A)[sp].[moe](G)p.[moe](A)p.[moe](T)[sp].[moe](T)}$$$$ (last 3' nucleoside missing)
- 3 h FOB score: 1 score 0-7

Substance: RNA1{[moe]([m5C])[sp].[moe](A)p.[moe](G)p.[moe]([m5C])p.[moe](A)[sp].d(T)[sp].d(T)[sp].d(T)[sp].d(G)[sp].d(T)[sp].d([m5C])[sp].d(T)[sp].d(T)[sp].[moe](T)p.[moe](A)p.[moe](T)[sp].[moe](T)}$$$$ (last 3' nucleoside missing)
- 3 h FOB score: 3 score 0-7

Substance: RNA1{[moe]([m5C])[sp].[moe](A)p.[moe](G)p.[moe]([m5C])p.[moe](A)[sp].d(T)[sp].d(T)[sp].d(T)[sp].d(G)[sp].d(T)[sp].d([m5C])[sp].d(T)[sp].d(T)[sp].d(T)[sp].d(A)[sp].[moe](T)p.[moe](T)p.[moe](T)[sp].[moe](T)}$$$$ (last 3' nucleoside missing)
- 3 h FOB score: 2 score 0-7

Substance: RNA1{[moe]([m5C])[sp].[moe](A)p.[moe](G)p.[moe]([m5C])p.[moe](A)p.[moe](T)p.d(T)[sp].d(T)[sp].d(G)[sp].d(T)[sp].d([m5C])[sp].d(T)[sp].d(T)[sp].d(T)[sp].d(A)[sp].d(T)[sp].[moe](T)p.[moe](T)[sp].[moe](T)}$$$$ (last 3' nucleoside missing)
- 3 h FOB score: 1 score 0-7

Substance: RNA1{[moe]([m5C])[sp].[moe](A)p.[moe](G)p.[moe]([m5C])p.[moe]([m5C])p.[moe](T)p.d(G)[sp].d(G)[sp].d(T)[sp].d(T)[sp].d(A)[sp].d(G)[sp].d([m5C])[sp].d([m5C])[sp].d(T)[sp].d(T)[sp].[moe](T)p.[moe]([m5C])[sp].[moe](T)}$$$$ (last 3' nucleoside missing)
- 3 h FOB score: 4 score 0-7

Substance: RNA1{[moe]([m5C])[sp].[moe](A)p.[moe](G)p.[moe]([m5C])p.[moe]([m5C])p.d(T)[sp].d(G)[sp].d(G)[sp].d(T)[sp].d(T)[sp].d(A)[sp].d(G)[sp].d([m5C])[sp].d([m5C])[sp].d(T)[sp].[moe](T)p.[moe](T)p.[moe]([m5C])[sp].[moe](T)}$$$$ (last 3' nucleoside missing)
- 3 h FOB score: 5 score 0-7

Substance: RNA1{[moe]([m5C])[sp].[moe](A)p.[moe](G)p.[moe]([m5C])p.d(A)[sp].d(T)[sp].d(T)[sp].d(T)[sp].d(G)[sp].d(T)[sp].d([m5C])[sp].d(T)[sp].d(T)[sp].d(T)[sp].[moe](A)p.[moe](T)p.[moe](T)p.[moe](T)[sp].[moe](T)}$$$$ (last 3' nucleoside missing)
- 3 h FOB score: 2 score 0-7

Substance: RNA1{[moe]([m5C])[sp].[moe](A)p.[moe](G)p.[moe]([m5C])p.d([m5C])[sp].d(T)[sp].d(G)[sp].d(G)[sp].d(T)[sp].d(T)[sp].d(A)[sp].d(G)[sp].d([m5C])[sp].d([m5C])[sp].[moe](T)p.[moe](T)p.[moe](T)p.[moe]([m5C])[sp].[moe](T)}$$$$ (last 3' nucleoside missing)
- 3 h FOB score: 4 score 0-7

Substance: RNA1{[moe]([m5C])[sp].[moe](A)p.[moe](T)p.[moe](G)p.[moe](G)[sp].d([m5C])[sp].d([m5C])[sp].d(T)[sp].d(G)[sp].d(G)[sp].d([m5C])[sp].d([m5C])[sp].d(T)[sp].d(T)[sp].d(G)[sp].[moe](A)p.[moe](G)p.[moe](A)[sp].[moe](A)}$$$$ (last 3' nucleoside missing)
- 3 h FOB score: 1 score 0-7
